Like-named read-outs stand apart in the source and are kept apart here.
Columns and labels:
MCL-1 = biological target: T1, MCL-1 (Homo sapiens, UniProt Q07820); experiment: Cell free Mcl-1:Bim affinity assay (fluorescence polarization competition); type: binding; conditions: 15 nM MCL-1, 5 nM FITC-Bim tracer, 1 hour at room temperature; Ki calc. from IC50 by Nikolovska-Coleska's equation; read-out: BIM_ Ki
T1 construct: purchased BPS Bioscience
Experimental: Cell Free Mcl-1:Bim Affinity Assay (Mcl-1 Bim)
The binding affinity of each compound was measured via a fluorescence polarization competition assay, in which the compound competes for the same binding site with the ligand, and thus leads to a dose-dependent anisotropy reduction. The tracer ligand utilized was a fluorescein isothiocyanate labelled peptide (FITC-[…]) derived from Bim (GenScript).
The assay was carried out in black half-area 96-well NBS plate (Corning), containing 15 nM of MCL-1 (BPS Bioscience), 5 nM of FITC-Bim and 3-fold serial diluted test compounds in a total volume of 50 μL of assay buffer (20 mM HEPES, 50 mM NaCl, 0.002% Tween 20, 1 mM TCEP, and 1% DMSO). The reaction plate was incubated for 1 hour at room temperature. The change of anisotropy is measured with an Envision multimode plate reader (PerkinElmer) at emission wavelength 535 nm. Fluorescence polarization was calc. in mP unit and the percentage inhibition was calc. by % inhibition=100×(mPDMSO−mP)/(mPDMSO−mPPC), in which mPDMSO is the DMSO control, and mPPC is the positive control. IC50 values were determined from a 10-point dose response curve by fitting the percent inhibition against compound concentration using the GraphPad Prism software. The inhibition constant Ki was subsequently calc. according to the Nikolovska-Coleska's equation (Anal. Biochem., 2004, 332, 261),
where [I]50 is the concentration of the free inhibitor at 50% inhibition, [L]50 is the concentration of the free labeled ligand at 50% inhibition, [P]0 is the concentration of the free protein at 0% inhibition, and Kd is the dissociation constant of the protein-ligand complex.

H929 cells = experiment: Cell viability assay (H929 10 FBS); type: cell-based; conditions: CellTiter-Glo or ATPlite, read-out: H929_10FBS IC50
Experimental: Cell Viability Assay (H929 10 FBS)
Dispense 10 μL aliquot of prepared H929 cells (1:1 ratio of cells:Trypan Blue (#1450013, Bio-Rad)) onto cell counting slide (#145-0011, Bio-Rad) and obtain cell density and cell viability using cell counter (TC20, Bio-Rad). Remove appropriate volume of resuspended cells from culture flask to accommodate 4000 cells/well @ 10 μL/well. Transfer H929 cells to 50 mL conical (#430290, Corning). Spin down at 1000 rpm for 5 min using tabletop centrifuge (SPINCHRON 15, Beckman). Discard supernatant and resuspend cell pellet in modified RPMI 1640 (#10-040-CV, Corning) cell culture media containing 10% FBS (F2422-500 ML, Sigma), sodium pyruvate (100 mM) (#25-000-CL, Corning), HEPES buffer (1 M) (#25-060-CL, Corning) and glucose (200 g/L) (A24940-01, Gibco) to a cell density of 400,000 cells/mL. Dispense 10 μL of resuspended H929 cells per well in 384-well small volume TC treated plate (#784080, Greiner Bio-one) using standard cassette (#50950372, Thermo Scientific) on Multi-drop Combi (#5840310, Thermo Scientific) in laminar flow cabinet. Dispense compounds onto plates using digital liquid dispenser (D300E, Tecan). Incubate plates in humidified tissue culture incubator @ 37° C. for 24 hours. Add 10 μL of prepared CellTiTer-Glo® detection buffer (G7570, Promega) or ATPlite 1Step detection reagent (#6016731, Perkin Elmer) to each well of 384-well plate using small tube cassette (#24073295, Thermo Scientific) on Combi multi drop, incubate @ RT for 30-60 min. Read plates with microplate reader (PheraStar, BMG Labtech) using 384 well luminescence mode.

T1 sequence (Q07820 whole entry): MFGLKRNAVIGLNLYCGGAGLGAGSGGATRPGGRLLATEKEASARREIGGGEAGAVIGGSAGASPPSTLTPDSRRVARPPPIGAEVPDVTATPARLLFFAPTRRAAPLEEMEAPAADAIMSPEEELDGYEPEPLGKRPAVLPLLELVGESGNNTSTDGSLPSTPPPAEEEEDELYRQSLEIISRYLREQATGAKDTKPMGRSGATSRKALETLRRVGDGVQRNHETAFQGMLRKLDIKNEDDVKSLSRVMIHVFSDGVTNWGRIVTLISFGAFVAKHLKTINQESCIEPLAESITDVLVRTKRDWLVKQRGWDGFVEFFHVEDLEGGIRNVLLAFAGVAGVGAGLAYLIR

Structure (SMILES)	Ki (MCL-1) [nM]	IC50 (H929 cells; 24 hours) [nM]	IC50 (H929 cells; Homo sapiens, NCI-H929, 24 h) [nM]
CO[C@H]1/C=C/COC(C)(C)C(=O)N=S(=O)(NC(=O)C2CCOCC2)c2ccc3c(c2)N(C[C@@H]2CC[C@H]21)C[C@@]1(CCCc2cc(Cl)ccc21)CO3 (stereo partly drawn) [Example 11, N-[(3R,6R,7S,8E,22S)-7′-Chloro-7-methoxy-12,12-dimethyl-13,15-dioxospiro[11,20-dioxa-15-thia-1,14-diazatetracyclo[14.7.2.03,6.019,24]pentacosa-8,14,16,18,24-pentaene-22,4′-2,3-dihydro-1H-naphthalene]-15-yl]oxane-4-carboxamide]	< 1	–	< 100
CO[C@H]1/C=C/COC(C)(C)C(=O)N=S(=O)(NC(=O)c2ccccc2)c2ccc3c(c2)N(C[C@@H]2CC[C@H]21)C[C@@]1(CCCc2cc(Cl)ccc21)CO3 (stereo partly drawn) [Example 12, N-[(3R,6R,7S,8E,22S)-7′-Chloro-7-methoxy-12,12-dimethyl-13,15-dioxospiro[11,20-dioxa-15-thia-1,14-diazatetracyclo[14.7.2.03,6.019,24]pentacosa-8,14,16,18,24-pentaene-22,4′-2,3-dihydro-1H-naphthalene]-15-yl]benzamide]	< 1	–	100 to 500
CO[C@H]1/C=C/COC(C)(C)C(=O)N=S(=O)(NC(=O)c2cnn(C)c2C)c2ccc3c(c2)N(C[C@@H]2CC[C@H]21)C[C@@]1(CCCc2cc(Cl)ccc21)CO3 (stereo partly drawn) [Example 18, N-[(3R,6R,7S,8E,22S)-7′-Chloro-7-methoxy-12,12-dimethyl-13,15-dioxospiro[11,20-dioxa-15-thia-1,14-diazatetracyclo[14.7.2.03,6.019,24]pentacosa-8,14,16,18,24-pentaene-22,4′-2,3-dihydro-1H-naphthalene]-15-yl]-1,5-dimethylpyrazole-4-carboxamide]	< 1	–	–
CO[C@H]1/C=C/COC(C)(C)C(=O)N=S(=O)(NC(=O)c2cc(C)n(C)n2)c2ccc3c(c2)N(C[C@@H]2CC[C@H]21)C[C@@]1(CCCc2cc(Cl)ccc21)CO3 (stereo partly drawn) [Example 19, N-[(3R,6R,7S,8E,22S)-7′-Chloro-7-methoxy-12,12-dimethyl-13,15-dioxospiro[11,20-dioxa-15-thia-1,14-diazatetracyclo[14.7.2.03,6.019,24]pentacosa-8,14,16,18,24-pentaene-22,4′-2,3-dihydro-1H-naphthalene]-15-yl]-1,5-dimethylpyrazole-3-carboxamide]	< 1	–	–
CO[C@H]1/C=C/COC(C)(C)C(=O)N=S(=O)(NC(=O)NC2CCOCC2)c2ccc3c(c2)N(C[C@@H]2CC[C@H]21)C[C@@]1(CCCc2cc(Cl)ccc21)CO3 (stereo partly drawn) [Example 38, 1-[(3R,6R,7S,8E,22S)-7′-Chloro-7-methoxy-12,12-dimethyl-13,15-dioxospiro[11,20-dioxa-15-thia-1,14-diazatetracyclo[14.7.2.03,6.019,24]pentacosa-8,14,16,18,24-pentaene-22,4′-2,3-dihydro-1H-naphthalene]-15-yl]-3-(oxan-4-yl)urea]	> 1	–	–
Cc1nn(C)cc1C(=O)NS1(=O)=NC(=O)C(C)(C)OC/C=C/[C@H](OC(=O)N(C)C)[C@@H]2CC[C@H]2CN2C[C@@]3(CCCc4cc(Cl)ccc43)COc3ccc1cc32 (stereo partly drawn) [Example 51, [(3R,6R,7S,8E,22S)-7′-Chloro-15-[(1,3-dimethylpyrazole-4-carbonyl)amino]-12,12-dimethyl-13,15-dioxospiro[11,20-dioxa-15-thia-1,14-diazatetracyclo[14.7.2.03,6.019,24]pentacosa-8,14,16,18,24-pentaene-22,4′-2,3-dihydro-1H-naphthalene]-7-yl] N,N-dimethylcarbamate]	< 1	–	–
Cn1cc(C(=O)NS2(=O)=NC(=O)C(C)(C)OC/C=C/[C@H](O)[C@@H]3CC[C@H]3CN3C[C@@]4(CCCc5cc(Cl)ccc54)COc4ccc2cc43)cn1 (stereo partly drawn) [Example 52, N-[(3R,6R,7S,8E,22S)-7′-Chloro-7-hydroxy-12,12-dimethyl-13,15-dioxospiro[11,20-dioxa-15-thia-1,14-diazatetracyclo[14.7.2.03,6.019,24]pentacosa-8,14,16,18,24-pentaene-22,4′-2,3-dihydro-1H-naphthalene]-15-yl]-1-methylpyrazole-4-carboxamide]	> 1	–	–
CN(C)C(=O)O[C@H]1/C=C/COC(C)(C)C(=O)N=S(=O)(NC(=O)c2cnn(C)c2)c2ccc3c(c2)N(C[C@@H]2CC[C@H]21)C[C@@]1(CCCc2cc(Cl)ccc21)CO3 (stereo partly drawn) [Example 53, [(3R,6R,7S,8E,22S)-7′-Chloro-12,12-dimethyl-15-[(1-methylpyrazole-4-carbonyl)amino]-13,15-dioxospiro[11,20-dioxa-15-thia-1,14-diazatetracyclo[14.7.2.03,6.019,24]pentacosa-8,14,16,18,24-pentaene-22,4′-2,3-dihydro-1H-naphthalene]-7-yl] N,N-dimethylcarbamate]	< 1	–	–
CC(C)C(=O)NS1(=O)=NC(=O)C(C)(C)OC/C=C/[C@H](OCCN2CCCC2)[C@@H]2CC[C@H]2CN2C[C@@]3(CCCc4cc(Cl)ccc43)COc3ccc1cc32 (stereo partly drawn) [Example 54, N-[(3R,6R,7S,8E,22S)-7′-Chloro-12,12-dimethyl-13,15-dioxo-7-(2-pyrrolidin-1-ylethoxy)spiro[11,20-dioxa-15-thia-1,14-diazatetracyclo[14.7.2.03,6.019,24]pentacosa-8,14,16,18,24-pentaene-22,4′-2,3-dihydro-1H-naphthalene]-15-yl]-2-methylpropanamide]	< 1	–	–
CC(C)C(=O)NS1(=O)=NC(=O)C(C)(C)OC/C=C/[C@H](OCCN(C)C)[C@@H]2CC[C@H]2CN2C[C@@]3(CCCc4cc(Cl)ccc43)COc3ccc1cc32 (stereo partly drawn) [Example 55, N-[(3R,6R,7S,8E,22S)-7′-Chloro-7-[2-(dimethylamino)ethoxy]-12,12-dimethyl-13,15-dioxospiro[11,20-dioxa-15-thia-1,14-diazatetracyclo[14.7.2.03,6.019,24]pentacosa-8,14,16,18,24-pentaene-22,4′-2,3-dihydro-1H-naphthalene]-15-yl]-2-methylpropanamide]	> 1	–	–

Second part, the compound after the results:

Ki (MCL-1) [nM]	IC50 (H929 cells; 24 hours) [nM]	IC50 (H929 cells; Homo sapiens, NCI-H929, 24 h) [nM]	Structure (SMILES)
< 1	< 100	–	COC1C=CCOC(C)(C)C(=O)N=S(=O)(NC(=O)N2CC(O)C2)c2ccc3c(c2)N(CC2CCC21)CC1(CCCc2cc(Cl)ccc21)CO3 (stereo not shown) [29 or 30]
> 1	> 500	–	COC1C=CCOC(C)(C)C(=O)N=S(=O)(NC(=O)N2CC(O)C2)c2ccc3c(c2)N(CC2CCC21)CC1(CCCc2cc(Cl)ccc21)CO3 (stereo not shown) [30 or 29]
< 1	–	< 100	COC1CN(C(=O)NS2(=O)=NC(=O)C(C)(C)OCC=CC(OC)C3CCC3CN3CC4(CCCc5cc(Cl)ccc54)COc4ccc2cc43)C1 (stereo not shown) [31 or 32]
< 1	100 to 500	–	COC1CN(C(=O)NS2(=O)=NC(=O)C(C)(C)OCC=CC(OC)C3CCC3CN3CC4(CCCc5cc(Cl)ccc54)COc4ccc2cc43)C1 (stereo not shown) [32 or 31]
< 1	–	< 100	CO[C@H]1/C=C/COC(C)(C)C(=O)N=S(=O)(NC(=O)c2cnn(C)c2)c2ccc3c(c2)N(C[C@@H]2CC[C@H]21)C[C@@]1(CCCc2cc(Cl)ccc21)CO3 (stereo partly drawn) [Example 15, N-[(3R,6R,7S,8E,22S)-7′-Chloro-7-methoxy-12,12-dimethyl-13,15-dioxospiro[11,20-dioxa-15-thia-1,14-diazatetracyclo[14.7.2.03,6.019,24]pentacosa-8,14,16,18,24-pentaene-22,4′-2,3-dihydro-1H-naphthalene]-15-yl]-1-methylpyrazole-4-carboxamide]

From patent publication US20230212191A1, “SPIRO-SULFONIMIDAMIDE DERIVATIVES AS INHIBITORS OF MYELOID CELL LEUKEMIA-1 (MCL-1) PROTEIN” (PRELUDE THERAPEUTICS, INCORPORATED, priority 2020, published 2023)
